pIC50: −log10 of the molar value. Like-named read-outs stand apart in the source and are kept apart here.
Test system: Myc
Assay: Myc inhibition assay: Myc expression per cell by anti-Myc immunofluorescence, high-content imaging
Format: cell-based, human (patient-derived medulloblastoma xenograft cells)
Conditions: medulloblastoma PDX cells, 4 h
Summary of the method: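 Cells from Myc-driven medulloblastoma patient-derived orthotopic xenografts, propagated only in NSG mouse cerebellum, were dissociated and plated in serum-free medium. After overnight recovery, compounds were applied for 4 hours; cells were then fixed, stained for Myc and DAPI, and per-cell Myc quantified by high-content imaging to derive IC50.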

[1] = Table 1, read-out: IC50 (Myc inhibition)
[2] = Table 2, read-out: MYC Inhibition IC50

SMILES | pIC50 [1] | pIC50 [2]
NS(=O)(=O)c1cccc(Nc2nccc(-c3ccc4[nH]cnc4c3)n2)c1 [Compound 46, 3-((4-(1H-benzo[d]imidazol-5-yl)pyrimidin-2-yl)amino)benzenesulfonamide] | > 6.70 | > 6.70
Nc1cccc(Nc2nccc(-c3ccc4nc[nH]c4c3)n2)c1 [Compound 275, N1-(4-(1H-benzo[d]imidazol-6-yl)pyrimidin-2-yl)benzene-1,3-diamine] | > 6.70 | > 6.70
COc1cccc(-c2ccnc(Nc3ccccc3OC)n2)c1 [Compound 248, N-(2-methoxyphenyl)-4-(3-methoxyphenyl)pyrimidin-2-amine] | 4.00 to 5.00 | 4.00 to 5.00
CC(C)c1nnc(Nc2nccc(-c3ccc4[nH]cnc4c3)n2)[nH]1 [Compound 54, 4-(1H-benzo[d]imidazol-5-yl)-N-(5-isopropyl-4H-1,2,4-triazol-3-yl)pyrimidin-2-amine] | 5.00 to 6.00 | 5.00 to 6.00
O=S(=O)(Nc1ccccc1)c1cccc(Nc2nccc(-c3ccc4[nH]cnc4c3)n2)c1 [Compound 23, 3-((4-(1H-benzo[d]imidazol-5-yl)pyrimidin-2-yl)amino)-N-phenylbenzenesulfonamide] | 5.00 to 6.00 | 5.00 to 6.00
O=C(c1cccc(Nc2nccc(-c3ccc4[nH]cnc4c3)n2)c1)N1CCCC1 [Compound 17, (3-((4-(1H-benzo[d]imidazol-5-yl)pyrimidin-2-yl)amino)phenyl)(pyrrolidin-1-yl)methanone] | 4.00 to 5.00 | 4.00 to 5.00
Fc1cc(-c2ccnc(Nc3cccc(C(F)(F)F)c3)n2)cc2nc[nH]c12 [Compound 115, 4-(7-fluoro-1H-benzo[d]imidazol-5-yl)-N-(3-(trifluoromethyl)phenyl)pyrimidin-2-amine] | > 6.70 | > 6.70
FC(F)(F)c1cccc(Nc2nccc(-c3ccc4[nH]cnc4c3)n2)c1 [Compound 50] | 5.00 to 6.00 | 5.00 to 6.00
CN(C)S(=O)(=O)c1cccc(Nc2nccc(-c3ccc4[nH]cnc4c3)n2)c1 [Compound 7, 3-((4-(1H-benzo[d]imidazol-5-yl)pyrimidin-2-yl)amino)-N,N-dimethylbenzenesulfonamide] | > 6.70 | > 6.70
Fc1cccc(Nc2nccc(-c3ccc4[nH]ncc4c3)n2)c1 [Compound 165, N-(3-Fluorophenyl)-4-(1H-indazol-5-yl)pyrimidin-2-amine] | 5.00 to 6.00 | 5.00 to 6.00
COc1cc(-c2ncnc(N(C)c3ccccc3)n2)ccn1 [Compound 216, 4-(2-methoxypyridin-4-yl)-N-methyl-N-phenyl-1,3,5-triazin-2-amine] | 4.00 to 5.00 | 4.00 to 5.00
O=C(Nc1cccc(Nc2nccc(-c3ccc4[nH]cnc4c3)n2)c1)c1ccccc1 [Compound 1, N-(3-((4-(1H-benzo[d]imidazol-5-yl)pyrimidin-2-yl)amino)phenyl)benzamide] | > 6.70 | > 6.70
Clc1ccc(Nc2nccc(-c3ccc4[nH]cnc4c3)n2)cc1 [Compound 86, 4-(1H-benzo[d]imidazol-5-yl)-N-(4-chlorophenyl)pyrimidin-2-amine] | 6.00 to 6.70 | 6.00 to 6.70
c1cc(Nc2nccc(-c3ccc4[nH]cnc4c3)n2)[nH]n1 [Compound 57, 4-(1H-benzo[d]imidazol-5-yl)-N-(1H-pyrazol-5-yl)pyrimidin-2-amine] | 5.00 to 6.00 | 5.00 to 6.00
c1cc(-c2ccc3[nH]cnc3c2)nc(Nc2ccc3cn[nH]c3c2)n1 [Compound 268, N-(4-(1H-benzo[d]imidazol-5-yl)pyrimidin-2-yl)-1H-indazol-6-amine] | 6.00 to 6.70 | 6.00 to 6.70
Oc1ccc(-c2ccnc(Nc3cc(F)ccn3)n2)nc1 [Compound 170, 6-(2-((4-fluoropyridin-2-yl)amino)pyrimidin-4-yl)pyridin-3-ol] | 5.00 to 6.00 | 5.00 to 6.00
COc1cccc(-c2ccnc(Nc3cccc(Cl)c3)n2)c1 [Compound 249, N-(3-chlorophenyl)-4-(3-methoxyphenyl)pyrimidin-2-amine] | 5.00 to 6.00 | 5.00 to 6.00
COc1cc(-c2ccnc(Nc3cncc(F)c3)n2)ccn1 [Compound 146, N-(5-fluoropyridin-3-yl)-4-(2-methoxypyridin-4-yl)pyrimidin-2-amine] | 5.00 to 6.00 | 5.00 to 6.00
Clc1cccc(Nc2nccc(-c3ccc4[nH]cnc4c3)n2)c1 [Compound 69, 4-(1H-benzo[d]imidazol-5-yl)-N-(3-chlorophenyl)pyrimidin-2-amine] | > 6.70 | > 6.70
c1ccc(Nc2nccc(-c3ccc4[nH]cnc4c3)n2)cc1 [Compound 78, 4-(1H-benzo[d]imidazol-5-yl)-N-phenylpyrimidin-2-amine] | 5.00 to 6.00 | 5.00 to 6.00
c1coc(CNc2nccc(-c3ccc4[nH]cnc4c3)n2)c1 [Compound 85, 4-(1H-benzo[d]imidazol-5-yl)-N-(furan-2-ylmethyl)pyrimidin-2-amine] | 5.00 to 6.00 | 5.00 to 6.00

SMILES | pIC50 [1] | pIC50 [2]
COc1cc(-c2ccnc(Nc3cccc(OCCO)c3)n2)ccn1 [Compound 129, 2-(3-((4-(2-methoxypyridin-4-yl)pyrimidin-2-yl)amino)phenoxy)ethan-1-ol] | 5.00 to 6.00 | 5.00 to 6.00
FC(F)(F)c1cccc(Nc2nccc(-c3ccc4cc[nH]c4c3)n2)c1 [Compound 172, 4-(1H-indol-6-yl)-N-(3-(trifluoromethyl)phenyl)pyrimidin-2-amine] | 5.00 to 6.00 | 5.00 to 6.00
COc1cc(-c2ccnc(Nc3ccccc3F)n2)ccn1 [Compound 208, N-(2-fluorophenyl)-4-(2-methoxypyridin-4-yl)pyrimidin-2-amine] | 4.00 to 5.00 | 4.00 to 5.00
FC(F)(F)c1ccc(Nc2nccc(-c3ccc4[nH]cnc4c3)n2)cc1 [Compound 266, 4-(1H-benzo[d]imidazol-5-yl)-N-(4-(trifluoromethyl)phenyl)pyrimidin-2-amine] | 5.00 to 6.00 | 5.00 to 6.00
O=C(Nc1cccc(Nc2nccc(-c3ccc4[nH]cnc4c3)n2)c1)c1ccco1 [Compound 254, N-(3-((4-(1H-benzo[d]imidazol-5-yl)pyrimidin-2-yl)amino)phenyl)furan-2-carboxamide] | > 6.70 | > 6.70
O=C(Nc1ccccc1)c1cccc(Nc2nccc(-c3ccc4[nH]cnc4c3)n2)c1 [Compound 263, 3-((4-(1H-benzo[d]imidazol-5-yl)pyrimidin-2-yl)amino)-N-phenylbenzamide] | > 6.70 | > 6.70
COc1cc(-c2ccnc(Nc3ncccn3)n2)ccn1 [Compound 195, 4-(2-methoxypyridin-4-yl)-N-(pyrimidin-2-yl)pyrimidin-2-amine] | 4.00 to 5.00 | 4.00 to 5.00
Oc1ncc(-c2ccnc(Nc3cccc(C(F)(F)F)c3)n2)s1 [Compound 144, 5-(2-((3-(trifluoromethyl)phenyl)amino)pyrimidin-4-yl)thiazol-2-ol] | 6.00 to 6.70 | 6.00 to 6.70
Oc1cc(-c2ccnc(Sc3ccccc3)n2)ccn1 [Compound 231, 4-(2-(phenylthio)pyrimidin-4-yl)pyridin-2-ol] | 4.00 to 5.00 | 4.00 to 5.00
COc1ccc(-c2ccnc(N(C)c3ccccc3)n2)cn1 [Compound 223, 4-(6-methoxypyridin-3-yl)-N-methyl-N-phenylpyrimidin-2-amine] | 4.00 to 5.00 | 4.00 to 5.00
Oc1cc(-c2ccnc(Nc3ccccc3)n2)ccn1 [Compound 251, 4-(2-(phenylamino)pyrimidin-4-yl)pyridin-2-ol] | 5.00 to 6.00 | 5.00 to 6.00
Fc1cccc(Nc2nccc(-c3cnc4nccn4c3)n2)c1 [Compound 273, N-(3-fluorophenyl)-4-(imidazo[1,2-a]pyrimidin-6-yl)pyrimidin-2-amine] | 5.00 to 6.00 | 5.00 to 6.00
O=C(NC1CC1)c1cccc(Nc2nccc(-c3ccc4[nH]cnc4c3)n2)c1 [Compound 9, 3-((4-(1H-benzo[d]imidazol-5-yl)pyrimidin-2-yl)amino)-N-cyclopropylbenzamide] | 6.00 to 6.70 | 6.00 to 6.70
NCCOc1cccc(Nc2nccc(-c3ccnc(O)c3)n2)c1 [Compound 120, 4-(2-((3-(2-aminoethoxy)phenyl)amino)pyrimidin-4-yl)pyridin-2-ol] | 5.00 to 6.00 | 5.00 to 6.00
c1cc(Nc2nccc(-c3ccc4[nH]cnc4c3)n2)cc(-n2cccn2)c1 [Compound 8, N-(3-(1H-pyrazol-1-yl)phenyl)-4-(1H-benzo[d]imidazol-5-yl)pyrimidin-2-amine] | > 6.70 | > 6.70
c1cc(-c2ccc3[nH]cnc3c2)nc(NC2CCCC2)n1 [Compound 88, 4-(1H-benzo[d]imidazol-5-yl)-N-cyclopentylpyrimidin-2-amine] | 5.00 to 6.00 | 5.00 to 6.00
CC(C)(C)c1ccccc1Nc1nccc(-c2ccc3[nH]cnc3c2)n1 [Compound 53, 4-(1H-benzo[d]imidazol-5-yl)-N-(2-(tert-butyl)phenyl)pyrimidin-2-amine] | 5.00 to 6.00 | 5.00 to 6.00
Oc1cncc(-c2ccnc(Nc3cccc(F)c3)n2)c1 [Compound 200, 5-(2-((3-fluorophenyl)amino)pyrimidin-4-yl)pyridin-3-ol] | 5.00 to 6.00 | 5.00 to 6.00
COc1ccc(-c2ccnc(Nc3cccc(F)c3)n2)nc1 [Compound 174, N-(3-fluorophenyl)-4-(5-methoxypyridin-2-yl)pyrimidin-2-amine] | 4.00 to 5.00 | 4.00 to 5.00
COc1ncc(-c2ccnc(Nc3cccc(F)c3)n2)s1 [Compound 180, N-(3-fluorophenyl)-4-(2-methoxythiazol-5-yl)pyrimidin-2-amine] | 5.00 to 6.00 | 5.00 to 6.00
CC(C)n1cnc2ccc(-c3ccnc(Nc4cccc(F)c4)n3)cc21 [Compound 277A, N-(3-fluorophenyl)-4-(1-isopropyl-1H-benzo[d]imidazol-6-yl)pyrimidin-2-amine] | > 6.70 | 
